Results taken from patent US11827628B2, “Compositions and methods for inhibition of the JAK pathway” (Rigel Pharmaceuticals, Inc., priority 2005, dated 2023).
Where two headings read alike, the source gives them in different places.

Legend:
[1] = test system: IL-4 stimulated expression of CD23 in human Ramos B cells (JAK-1 and JAK-3); test: Assay for Ramos B-Cell Line Stimulated with IL-4 (CD23 upregulation, FACS); assay type: cell-based; conditions: Ramos B-cell line stimulated with IL-4, CD23 expression by FACS, read-out: IC50, Example 41
In short: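 Read-out: anti-CD23-PE flow cytometry on Ramos B cells, giving IC50. Cells (5×10^4 per point, RPMI + 5% serum) get compound or DMSO for 1 h at 37 °C, then IL-4 50 units/mL final for 20-24 h.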

[2] = test system: up-regulation of ICAM-1 (CD54) by IFNγ in A549 lung epithelial cells; test: A549 Epithelial Line Stimulated with IFNγ (ICAM-1 surface expression, FACS); assay type: cell-based, human; conditions: ICAM-1 expression by FACS, read-out: IC50, Example 43
Excerpt: The activity of the compounds of the invention may additionally be characterized by assaying the effect of the 2,4-substituted pyrimidinediamine compounds described herein on A549 lung epithelial cells and U937 cells. A549 lung epithelial cells and U937 cells up-regulate ICAM-1 (CD54) surface expression in response to a variety of different stimuli. Therefore, using ICAM-1 expression as readout, test compound effects on different signaling pathways can be assessed in the same cell type. Stimulation with IL-1β through the IL-1β receptor activates the TRAF6/NFκB pathway resulting in up-regulation of ICAM-1. IFNγ induces ICAM-1 up-regulation through activation of the JAK1/JAK2 pathway. The up-regulation of ICAM-1 can be quantified by flow cytometry across a compound dose curve and EC50, values are calculated. An exemplary assays of this type are described in greater detail in Examples 43 and 44
A549 lung epithelial cells up-regulate ICAM-1 (CD54) surface expression in response to a variety of different stimuli. Therefore, using ICAM-1 expression as readout, compound effects on different signaling pathways can be assessed in the same cell type. IFNγ up-regulates ICAM-1 through activation of the JAK/Stat pathway. In this example, the up-regulation of ICAM-1 by IFNγ was assessed.
The A549 lung epithelial carcinoma cell line originated from the American Type Culture Collection. Routine culturing was with F12K media (Mediatech Inc., Lenexa, KS, Cat. No. 10-025-CV) with 10% fetal bovine serum, 100 I.U. penicillin and […] streptomycin (complete F12k media). Cells were incubated in a humidified atmosphere of 5% CO2 at 37° C. Prior to use in the assay, A549 cells were washed with PBS and trypsinized (Mediatech Inc., Cat. No. 25-052-CI) to lift the cells. The trypsin cell suspension was neutralized with complete F12K media and centrifuged to pellet the cells. The cell pellet was resuspended in complete F12K media at a concentration of 2.0×10^5/mL. Cells were seeded at 20,000 per well, 100 μL total volume, in a flat bottom tissue culture plate and allowed to adhere overnight.
On day two, A549 cells were pre-incubated with a 2,4-substituted pyrimidinediamine test compound or DMSO (control) (Sigma-Aldrich, St. Louis, MO, Catalog No. D2650) for 1 hour. The cells were then stimulated with IFNγ (75 ng/mL) (Peprotech Inc., Rocky Hill, NJ, Cat. No. 300-02) and allowed to incubate for 24 hours. The final test compound dose range was 30 μM to 14 nM in 200 μL F12K media containing 5% FBS, 0.3% DMSO.
On day three, the cell media was removed and the cells were washed with 200 μL PBS (phosphate buffered saline). Each well was trypsinized to dissociate the cells, then neutralized by addition of 200 μL complete F12K media. Cells were pelleted and stained with an APC conjugated mouse anti-human ICAM-1 (CD54) (BD Pharmingen, San Diego, CA, Catalog #559771) antibody for 20 minutes at 4° C. Cells were washed with ice cold FACS buffer (PBS+2% FBS) and surface ICAM-1 expression was analyzed by flow cytometry. Detection was performed using a BD LSR I System Flow Cytometer, purchased from BD Biosciences of San Jose, California Events were gated for live scatter and the geometric mean was calculated (Becton-Dickinson CellQuest software version 3.3, Franklin Lakes, NJ). Geometric means were plotted against the compound concentration to generate a dose response curve.

[3] = Homo sapiens, A549, A549 epithelial line stimulated with IFNγ
[4] = A549 epithelial line stimulated with IFNγ

| IC50 ([1]; Homo sapiens, Ramos) | IC50 [2, 3] | IC50 [1] | IC50 [2, 4] | Structure (SMILES) |
| --- | --- | --- | --- | --- |
| 0.0374 µM | 10.2 µM | – | – | N#CCOc1ccc(Nc2nc(Nc3ccc(S(N)(=O)=O)cc3)ncc2F)cc1Cl [Compound I-41, N2-(4-Aminosulfonylphenyl)-N4-(3-chloro-4-cyanomethoxyphenyl)-5-fluoro-2,4-pyrimidinediamine] |
| 0.308 µM | 31 µM | – | – | Cc1cc(Nc2nc(Nc3ccc(S(=O)(=O)N4CCN(C)CC4)cc3)ncc2F)cc(C)c1OCC#N [Compound I-40, N4-(4-Cyanomethoxy-3,5-dimethylphenyl)-5-fluoro-N2-[4-(4-methylpiperazin-1-yl)sulfonylphenyl]-2,4-pyrimidinediamine] |
| – | – | 0.781 µM | 30.7 µM | CN1CCN(S(=O)(=O)c2ccc(Nc3ncc(F)c(Nc4ccc(CC#N)cc4)n3)cc2)CC1 [III-6, N4-(4-Cyanomethyl)phenyl-5-fluoro-N2-[4-(4-methylpiperazin-1-yl)sulfonyl]phenyl-2,4-pyrimidinediamine] |
| – | – | 1.65 µM | 29.9 µM | CN1CCN(S(=O)(=O)c2cccc(Nc3ncc(F)c(Nc4cccc(OCC#N)c4)n3)c2)CC1 [Compound I-5, N4-(3-Cyanomethoxy)phenyl-5-fluoro-N2-[3-(4-methylpiperazin-1-yl)sulfonyl]phenyl-2,4-pyrimidinediamine] |
| – | – | 0.522 µM | 21 µM | CN1CCN(S(=O)(=O)c2ccc(Nc3ncc(F)c(Nc4cccc(OCC#N)c4)n3)cc2)CC1 [Compound I-6, N4-(3-Cyanomethoxy)phenyl-5-fluoro-N2-[4-(4-methylpiperazin-1-yl)sulfonyl]phenyl-2,4-pyrimidinediamine] |
